Laboratory results taken from PMC8760490, “Discovery of novel furanylbenzamide inhibitors that target oncogenic tyrosine phosphatase SHP2 in leukemia cells” (The Journal of Biological Chemistry, 2021).
pIC50: −log10 of the molar value.

Target: T1, SHP2cat (Homo sapiens, UniProt Q06124)
T1 construct: the SHP2 catalytic domain (SHP2cat; residues 248–527); made in house
T1 sequence (Q06124 248-527): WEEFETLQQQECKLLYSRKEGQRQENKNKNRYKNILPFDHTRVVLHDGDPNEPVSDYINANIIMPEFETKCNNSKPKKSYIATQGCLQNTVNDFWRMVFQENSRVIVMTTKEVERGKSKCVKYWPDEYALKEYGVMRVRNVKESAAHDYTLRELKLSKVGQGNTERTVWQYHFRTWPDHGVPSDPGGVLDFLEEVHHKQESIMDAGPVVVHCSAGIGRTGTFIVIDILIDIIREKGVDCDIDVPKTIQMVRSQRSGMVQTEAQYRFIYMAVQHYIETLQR
Assay: OMFP fluorescence phosphatase inhibition assay, SHP2cat
Format: biochemical
Settings: substrate OMFP at Km (50 μM); read-out: IC50 against SHP2cat with OMFP
From the text: We confirmed specific and dose-dependent binding of inhibitors to SHP2 by PTS, which monitors the thermal stability of a target protein in vitro ([40]). […] In addition, we confirmed the inhibitory activity of several furanylbenzamide inhibitors, including the top two compounds SBI-2130 and SBI-4668, in SHP2cat inhibition assays using the alternative substrate 3-O-methylfluorescein phosphate (OMFP), which features a peak fluorescence emission that is red-shifted by ∼75 nm compared with DiFMUP. The Km value of OMFP for SHP2cat was determined to be 50 μM. An OMFP fluorescence intensity–based assay was used to perform inhibitor dose–response experiments and determine IC50 values.
SHP2 inhibitors were tested at RT in a 384-well plate format standard phosphatase fluorescence intensity assay using DiFMUP (Invitrogen/Thermo Fisher Scientific) as a substrate and a total reaction volume of 25 μl. […] Fluorescence intensity was measured in kinetic mode (every minute for 7 or 10 min) using a Tecan Spark Multimode Microplate Reader (Tecan) with an excitation wavelength of 360 nm and an emission wavelength of 460 nm. The initial rates were determined from the linear progression curves of the PTP reaction. […] IC50 values were calculated from the corrected initial rates by nonlinear regression using the program GraphPad Prism, version 8 (GraphPad Software, Inc) software. […]

Compound | pIC50
Nc1ccc(NC(=O)c2cc(-c3ccc(/C=C4\Sc5ccccc5C4=O)o3)ccc2O)cc1 [SBI-2130, (Z)-N-(4-Aminophenyl)-2-hydroxy-5-(5-((3-oxobenzo[b]thiophen-2(3H)-ylidene)methyl)furan-2-yl)benzamide] | 6.36
O=C(Nc1ccccc1)c1cc(-c2ccc(/C=C3\Sc4ccccc4C3=O)o2)ccc1O [SBI-4668, (Z)-2-Hydroxy-5-(5-((3-oxobenzo[b]thiophen-2(3H)-ylidene)methyl)furan-2-yl)-N-phenylbenzamide] | 5.92
